Literature values, collected in patent US20100267624A1 (priority 2007, published 2010).
Counter-ions that a name gives are not always drawn.

## CN[C@H](CC(C)C)C(=O)N[C@H]1C(=O)N[C@@H](CC(N)=O)C(=O)N[C@H]2C(=O)N[C@H]3C(=O)N[C@H](C(=O)N[C@H](C(=O)O)c4cc(O)cc(O)c4-c4cc3ccc4O)[C@H](O)c3ccc(c(Cl)c3)Oc3cc2cc(c3O[C@@H]2O[C@H](CO)[C@@H](O)[C@H](O)[C@H]2O[C@H]2C[C@](C)(N)[C@H](O)[C@H](C)O2)Oc2ccc(cc2Cl)[C@H]1O [Vancomycin Hydrochloride]
Organic solvents
  solubility in organic solvents: poorly soluble
water
  solubility in water: very soluble
